The record followed here is US20160130278A1 (TAISHO PHARMACEUTICAL CO., LTD, priority 2013, published 2016).

This assay has as its target T1, human type 1 glycine transporter (GlyT1) (Homo sapiens, UniProt P48067).
T1 construct: T98G cells (glioma cells) expressing human type 1 glycine transporter (GlyT1) were used
T1 sequence (P48067 1-706): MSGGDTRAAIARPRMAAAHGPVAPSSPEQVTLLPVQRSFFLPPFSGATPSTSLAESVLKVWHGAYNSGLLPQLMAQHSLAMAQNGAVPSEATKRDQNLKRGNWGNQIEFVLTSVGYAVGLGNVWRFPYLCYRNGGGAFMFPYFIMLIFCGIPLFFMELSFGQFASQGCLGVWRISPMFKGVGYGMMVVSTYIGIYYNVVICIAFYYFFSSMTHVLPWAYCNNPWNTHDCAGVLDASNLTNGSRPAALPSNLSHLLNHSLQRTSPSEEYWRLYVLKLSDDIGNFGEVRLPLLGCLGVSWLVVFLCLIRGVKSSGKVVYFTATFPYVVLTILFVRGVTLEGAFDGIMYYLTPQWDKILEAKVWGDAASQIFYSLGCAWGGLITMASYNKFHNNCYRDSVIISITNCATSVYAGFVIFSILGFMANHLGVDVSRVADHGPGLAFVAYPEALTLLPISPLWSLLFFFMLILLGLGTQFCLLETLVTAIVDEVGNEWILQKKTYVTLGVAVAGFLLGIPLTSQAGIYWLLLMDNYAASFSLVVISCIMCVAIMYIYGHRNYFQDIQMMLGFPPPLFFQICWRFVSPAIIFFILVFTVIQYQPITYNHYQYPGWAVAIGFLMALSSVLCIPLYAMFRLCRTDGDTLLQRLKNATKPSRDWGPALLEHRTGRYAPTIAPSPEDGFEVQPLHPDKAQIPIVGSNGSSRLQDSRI
As to the kind of experiment: Glycine uptake inhibition experiment ([3H]glycine uptake). The class given is cell-based. The conditions noted are these: GlyT1. Summed up: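 T98G glioma cells expressing human GlyT1 were pretreated 10 min with compound in HEPES buffer pH 7.4 (0.2% BSA), then incubated with compound plus 250 nM final [3H]glycine for 15 min at room temperature. Intracellular radioactivity was counted after NaOH lysis; 10 μM ALX5407 defined non-specific uptake. IC50 came from 10^−9–10^−5 M curves.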

Structures are written as SMILES. pIC50: −log10 of the molar value.

The pIC50 is the IC50 on a negative log10 scale, so that one unit is a factor of ten. Read a high pIC50 as a low IC50. `O=C(NC(c1cccc(F)c1Cl)[C@]1(O)CC[C@@H](F)CC1)c1c(Cl)nc2ccccn12` (single isomer, unassigned) [Compound 262, 2-chloro-N-[(2-chloro-3-fluorophenyl)(cis-4-fluoro-1-hydroxycyclohexyl)methyl]imidazo[1,2-a]pyridine-3-carboxamide] had a pIC50 of 5.06.
As to `O=C(NC(c1cccc(F)c1Cl)[C@]1(O)CC[C@@H](F)CC1)c1cc(O)ccc1Cl` (single isomer, unassigned) [Compound 297, 2-chloro-N-[(2-chloro-3-fluorophenyl)(cis-4-fluoro-1-hydroxycyclohexyl)methyl]-5-hydroxybenzamide], the pIC50 was 5.82.
As to `O=C(NC(c1ccccn1)[C@]1(O)CC[C@@H](F)CC1)c1nccc(C(F)(F)F)c1Cl` (single isomer, unassigned) [Compound 244, 3-chloro-N-[(cis-4-fluoro-1-hydroxycyclohexyl)(pyridin-2-yl)methyl]-4-(trifluoromethyl)pyridine-2-carboxamide], the pIC50 is 6.00.
Molecule `CC(C)n1cc(-c2cccc(C(NC(=O)c3nccc(C(F)(F)F)c3Cl)C3(O)CCC(F)(F)CC3)c2)cn1` (centres unmarked) [Compound 129, 3-chloro-N-[(4,4-difluoro-1-hydroxycyclohexyl){3-[1-(propan-2-yl)-1H-pyrazol-4-yl]phenyl}methyl]-4-(trifluoromethyl)pyridine-2-carboxamide] had a pIC50 of 7.00.
The molecule `COc1cccc(Cl)c1C(=O)NC(c1cccc(F)c1Cl)[C@]1(O)CC[C@@H](F)CC1` (single isomer, unassigned) [Compound 300, 2-chloro-N-[(2-chloro-3-fluorophenyl)(cis-4-fluoro-1-hydroxycyclohexyl)methyl]-6-methoxybenzamide] gave a negative logarithm of the IC50 (pIC50) of 5.92.
Molecule `O=C(NC(c1cccc(-c2ccccn2)c1)C1(O)CCC(F)(F)CC1)c1cc(C(F)(F)F)ccc1Cl` (single isomer, unassigned) [Compound 190, 2-chloro-N-[(4,4-difluoro-1-hydroxycyclohexyl)[3-(pyridin-2-yl)phenyl]methyl}-5-(trifluoromethyl)benzamide] gave a pIC50 of 6.31.
Molecule `CCn1cc(-c2cccc(C(NC(=O)c3cccc(C(F)(F)F)c3Cl)C3(O)CCC(F)(F)CC3)c2)cn1` (single isomer, unassigned) [Compound 121, 2-chloro-N-{(4,4-difluoro-1-hydroxycyclohexyl)[3-(1-ethyl-1H-pyrazol-4-yl)phenyl]methyl}-3-(trifluoromethyl)benzamide] had a pIC50 of 5.13.
In the case of `O=C(NC(c1ccccc1)C1(O)CCCC1)c1nccc(C(F)(F)F)c1Cl` (centres unmarked) [Compound 12, 3-chloro-N-[(1-hydroxycyclopentyl)(phenyl)methyl]-4-(trifluoromethyl)pyridine-2-carboxamide], the pIC50 is 6.32.
On to `CCn1cc(-c2cccc(C(NC(=O)c3cccc(C)c3Cl)C3(O)CCC(F)(F)CC3)c2)cn1` (centres unmarked) [Compound 126, 2-chloro-N-{(4,4-difluoro-1-hydroxycyclohexyl)[3-(1-ethyl-1H-pyrazol-4-yl)phenyl]methyl}-3-methylbenzamide], for which the pIC50 was 6.14.
In turn, `O=C(NC(c1cccc(-c2ccccn2)c1)C1(O)CCC(F)(F)CC1)c1nccc(C(F)(F)F)c1Cl` (single isomer, unassigned) [Compound 188, 3-chloro-N-{(4,4-difluoro-1-hydroxycyclohexyl)[3-(pyridin-2-yl)phenyl]methyl]-4-(trifluoromethyl)pyridine-2-carboxamide] gave a pIC50 of 7.14.
The molecule `CS(=O)(=O)c1nc(C(F)(F)F)ccc1C(=O)NC(c1cccc(F)c1Cl)[C@]1(O)CC[C@@H](F)CC1` (single isomer, unassigned) [Compound 388, N-[(2-chloro-3-fluorophenyl)(cis-4-fluoro-1-hydroxycyclohexyl)methyl]-2-(methylsulfonyl)-6-(trifluoromethyl)pyridine-3-carboxamide] had a pIC50 of 6.59. Against the preceding molecule, the pIC50 is 0.55 log units lower.
